From article PMC3572206 (Biomaterials, 2012)

Assays:
MDA-MB-468 = assay: Cytotoxicity; type: cell-based, human; details: read-out: IC50: MDA-MB-468; 72 hrs post-addition
MDA-1986 = assay: Cytotoxicity; type: cell-based, human; details: read-out: IC50: MDA-1986; 72 hrs post-addition
[1] = system: MDA-1986 human head and neck squamous cell carcinoma xenografts
MDA-1986 cells = assay: Nitric oxide release in vitro; type: cell-based, human
MDA-MB-231 = assay: Cytotoxicity; type: cell-based, human; details: read-out: IC50: MDA-MB-231; 72 hrs post-addition

Row | Compound | IC50 (MDA-MB-468) | IC50 (MDA-1986) | progressive disease (PD) rate ([1]; 10 mg/kg, Sugar-NO1 s.c., JS-K i.v.) | animals euthanized (tumor size exceeding 1000 mm^3 or necrosis of the injection site on the tail) ([1]; within 7 weeks) | increase in release half-life compared to JS-K (MDA-1986 cells) | IC50 (MDA-MB-231)
1 | CCOC(=O)N1CCN(/[N+]([O-])=N/Oc2ccc([N+](=O)[O-])cc2[N+](=O)[O-])CC1 [JS-K, O^2-(2,4-Dinitrophenyl) 1-[(4-ethoxycarbonyl)piperazin-1-yl]diazen-1-ium-1,2-diolate, reference compound] | 42 µM | 16 µM | 100% | 100% |  | 
2 | O=[N+]([O-])c1ccc(ON=[N+]([O-])N2CCN(CCOCCO)CC2)c([N+](=O)[O-])c1 [NO1, O^2-(2,4-Dinitrophenyl) 1-{[4-(2-(2-hydroxyethoxy))ethyl]piperazin-1-yl} diazen-1-ium-1,2-diolate] | 26 µM | 32 µM |  |  | 1 fold | 32 µM
3 | O^2-(2,4-Dinitrophenyl) 1-{[4-(2-hydroxy)ethyl]-3-methylpiperazin-1-yl}diazen-1-ium-1,2-diolate [NO2] | 27 µM | 57 µM |  |  |  | 
